In patent US4361673A, “Polypeptide compositions” (American Home Products Corporation, priority 1981, dated 1982):
Where a name gives a salt, the structure may show the parent alone. Non-standard residues stand in square brackets, D forms with d. Residues, ends and D or L forms follow the SMILES beside them. No end group written: not given here. pGlu = O=C1CC[C@@H](C(=O)O)N1

Columns and labels:
[1] = tested on: T lymphocytes isolated from spleens of male CBA/J or NZB mice; assay: T lymphocyte proliferation, 3H-thymidine uptake; format: cell-based
Procedure: The activity of the compounds of Examples is determined according to the following procedure:
T lymphocytes are isolated from spleens of male CBA/J or NZB mice. Cell homogenates are prepared in Hank's balanced salt solution (HBSS). After removal of larger particles and repeated washing of the cells in HBSS they are suspended in minimum essential medium (MEM) and passed through a glass wool column to remove macrophages. The cells are then incubated on a nylon wool column at 37° C., 95% air, 5% CO2, for 45 minutes. The non-adherant T lymphocytes are then eluted from the column, counted, and adjusted to 20×10^6 cells/ml. 50 μl. of cells are cultured (37° C., 95% air, 5% Co2) with compound, for 48 hours before addition of 0.5 μCi. of 3H-thymidine for the last 16 hours of culture. The total volume of the culture system is 200 μl. The cells are then harvested on a multiple automatic sample harvester (Mash II), the glass fiber filter disks placed in 10 ml. of xylene base scintillation fluid, and counted for 1 minute in a liquid scintillation counter. Results are reported as CPM±SE. Levamisole is used as the standard. Comparisons are made between counts obtained with control cultures and cultures containing compound and a determination made as to whether the compounds are active at the dosage tested.

[2] = several biological models; Low et al.; cited from earlier work
[3] = 1.5 ng/culture, control (0 ng) 49,519 ± 4048
[4] = 6.0 ng/culture, control (0 ng) 49,519 ± 4048
[5] = 25.0 ng/culture, control (0 ng) 49,519 ± 4048
[6] = 100.0 ng/culture, control (0 ng) 49,519 ± 4048

CC(C)[C@H](NC(=O)[C@H](CCC(=O)O)NC(=O)[C@H](CCCCN)NC(=O)[C@H](CCCCN)NC(=O)[C@@H]1CCC(=O)N1)C(N)=O [p-Glu--Lys--Lys--Glu--Val--NH2, L-(5-oxoprolyl)-L-lysyl-L-lysyl-L-α-glutamyl-L-valinamide, diacetate salt] ([pGlu]KKEV-NH2)
3H-Thymidine Uptake CPM + S.E. ([1]; 1.5 ng/culture, control (0 ng) 9,876 ± 951): 23,736 ± 3417 CPM
3H-Thymidine Uptake CPM + S.E. ([1]; 6.0 ng/culture, control (0 ng) 9,876 ± 951): 31,236 ± 2004 CPM
3H-Thymidine Uptake CPM + S.E. ([1]; 25.0 ng/culture, control (0 ng) 9,876 ± 951): 26,026 ± 3537 CPM
3H-Thymidine Uptake CPM + S.E. ([1]; 100.0 ng/culture, control (0 ng) 9,876 ± 951): 27,830 ± 1749 CPM

thymosin α1 (SDAAVDTSSEITTKDLKEKKEVVEEAEN; ends and bridges not checked; UniProt P06454 2-29, looked up)
activity relative to the parent thymosin Fraction 5 [2]: 10-1,000 times

NCCCC[C@H](NC(=O)[C@H](CCCCN)NC(=O)[C@@H]1CCC(=O)N1)C(=O)N[C@@H](CCC(=O)O)C(N)=O [p-Glu--Lys--Lys--Glu--NH2, L-(5-oxoprolyl)-L-lysyl-L-lysyl-L-α-glutamine, diacetate salt] ([pGlu]KKE-NH2)
3H-Thymidine Uptake CPM + S.E. [1, 3]: 73,407 ± 3333 CPM
3H-Thymidine Uptake CPM + S.E. [1, 4]: 78,727 ± 7102 CPM
3H-Thymidine Uptake CPM + S.E. [1, 5]: 73,932 ± 6944 CPM
3H-Thymidine Uptake CPM + S.E. [1, 6]: 67,489 ± 5190 CPM

CC(=O)O.CC(=O)O.CC(=O)O.CC(C)[C@H](NC(=O)[C@H](CCC(=O)O)NC(=O)[C@H](CCCCN)NC(=O)[C@@H](N)CCCCN)C(N)=O [H--Lys--Lys--Glu--Val--NH2, L-lysyl-L-lysyl-L-glutamyl-L-valineamide, triacetate salt] (H-KKEV-NH2)
3H-Thymidine Uptake CPM + S.E. [1, 3]: 72,713 ± 3633 CPM
3H-Thymidine Uptake CPM + S.E. [1, 4]: 77,979 ± 3760 CPM
3H-Thymidine Uptake CPM + S.E. [1, 5]: 62,712 ± 6004 CPM
3H-Thymidine Uptake CPM + S.E. [1, 6]: 51,021 ± 5527 CPM

c1ccc([C@H]2CN3CCSC3=N2)cc1 [Levamisole, reference compound]
3H-Thymidine Uptake CPM + S.E. ([1]; 5 ng/culture, 48 h culture, 3H-thymidine last 16 h, control 49,519 ± 4048): 70,353 ± 1561 CPM

CC(C)[C@H](NC(=O)[C@H](CCC(=O)O)NC(=O)[C@H](CCCCN)NC(=O)[C@@H](N)CCCCN)C(=O)O [H-- Lys--Lys--Glu Val--OH, L-Lysyl-L-lysyl-L-glutamyl-L-valine, diacetate salt] (H-KKEV-OH)
3H-Thymidine Uptake CPM + S.E. ([1]; 2.5 ng/culture, control (0 ng) 2,789 ± 148): 3,931 ± 140 CPM
3H-Thymidine Uptake CPM + S.E. ([1]; 10 ng/culture, control (0 ng) 2,789 ± 148): 3,745 ± 172 CPM
3H-Thymidine Uptake CPM + S.E. ([1]; 25 ng/culture, control (0 ng) 2,789 ± 148): 4,397 ± 346 CPM
3H-Thymidine Uptake CPM + S.E. ([1]; 100 ng/culture, control (0 ng) 2,789 ± 148): 4,235 ± 284 CPM
